Source: US9354230B2, “Methods and apparatus for conducting multiple measurements on a sample” (MESO SCALE TECHNOLOGIES, LLC., priority 2001, dated 2016)

Key:
[1] = target: T1, HIV Reverse Transcriptase (RT) RNA-dependent DNA polymerase (RDDP) activity (Human immunodeficiency virus type 1 group M subtype B, UniProt P04585); assay: ECL assay of HIV RT RDDP activity in one well of an MDMW Plate; assay type: biochemical; conditions: 125 uM; data not shown
T1 construct: HIV Reverse Transcriptase (RT), an enzyme with both a RNA-dependent DNA polymerase (RDDP) activity and an RNAse H activity

[2] = target: T2, HIV Reverse Transcriptase (RT) RNAse H activity (Human immunodeficiency virus type 1 group M subtype B, UniProt P04585); assay: ECL assay of HIV RT RNAse H activity in one well of an MDMW Plate; assay type: biochemical; conditions: 125 uM; data not shown
T2 construct: HIV Reverse Transcriptase (RT), an enzyme with both a RNA-dependent DNA polymerase (RDDP) activity and an RNAse H activity

Compound: Nc1ccn([C@H]2CC[C@@H](COP(=O)(O)OP(=O)(O)OP(=O)(O)O)O2)c(=O)n1 [ddCTP]
- inhibition of RDDP activity [1]: completely inhibited
- effect on RNAse H activity [2]: no effect
